Data on 2 compounds can be found in patent publication US5474757A, “Prevention of acetaminophen overdose toxicity with organosulfur compounds” (priority 1992, dated 1995).

Data set [1] deals with P-450 2E1. Particulars: treatment of rats; cited from earlier work.
The subject of data set [2] is P-450 2E1. To be noted: isolated rat liver microsomes; cited from earlier work. For orientation: Microsomes from liver hold many membrane-bound enzymes, among them those of drug oxidation.
Data set [3] deals with p-nitrophenol hydroxylase. To be noted: isolated rat liver microsomes; cited from earlier work.
Data set [4] relates to hepatotoxicity of N-nitrosodimethylamine. Particulars: pre-treatment of rats; cited from earlier work.
The test system of data set [5] is acetaminophen-induced hepatotoxicity. The data set can be described thus: Protective effect against acetaminophen overdose in rats (serum GPT, LDH, liver damage). It is filed as in vivo, rat (male Fisher 344). The protocol: Brady et al., "Effect of […] […] Biochem. […] Extent of tissue damage was determined using a […]-6 Image Analysis System (Advanced Imaging Concepts, Inc.). […] All determinations were made without knowledge of treatment group. […] All experiments were replicated at least once.

Data set [6] shares this test system. The data set can be described thus: animal or person. Particulars: for GPT / LDH / Survival / Extent of liver damage: 25 mg/kg oral. An excerpt: Blood samples were obtained from the jugular vein of CO2 -anesthetizedanimals. The blood was allowed to clot at room temperature and serum was separated by centrifugation. […] Biochem. Biophys.
Randomly-selected samples of the major hepatic lobe were fixed in 10% buffered formalin for histological evaluation. Samples were subsequently embedded in Paraplast (Fisher Scientific) and sectioned at 6 μm on a rotary microtome. Tissue sections were stained with hematoxylin-eosine-phloxine for examination. Extent of tissue damage was determined using a Presage CV-6 Image Analysis System (Advanced Imaging Concepts, Inc.). Images of randomly-selected slides (3 slides/animal, 2-3 animals/group) containing full cross sections of the major hepatic lobe were projected onto a computer screen and the image captured. The areas of damage were then outlined on the screen and the areas quantated using interactive software. The area of damage was shown as a percentage of the total hepatic area for each section. All determinations were made without knowledge of treatment group.
Data were analyzed by the Newman-Keuls multiple comparison procedure on the rank score analysis.
All experiments were replicated at least once.
As a Comparative Example, 300 mg/kg N-acetylcysteine was also administered immediately after administration of 0.2 g/kg acetaminophen.
As a Comparative Example, 300 mg/kg N-acetylcysteine was also administered 1 hour after administration of 0.2 g/kg acetaminophen.

In data set [7] the test system is 1,2-dimethylhydrazine-induced hepatotoxicity and carcinogenesis. To be noted: rats; cited from earlier work.
The test system of data set [8] is carbon tetrachloride hepatotoxicity. Particulars: cited from earlier work.
Where [9] appears, read: 50 mg/kg oral, 1 hour after APAP 0.4 g/kg, mean ± SD of five rats.
Where [10] appears, read: immediately (0 min) after APAP 0.2 g/kg.

Regarding `C=CC[S+]([O-])CC=C` [DASO, diallyl sulfoxide], the “liver microsomal P-450 2E1-dependent (NDMA demethylase) activity” value in the data set on P-450 2E1 [1] is “decreased”. In the data set with P-450 2E1 [2], the “inhibition of P-450 2E1-catalyzed NDMA demethylase” value was “competitively”. Moreover, the “inhibition of p-nitrophenol hydroxylase” value in data set [3] is “competitively”.

In the case of `C=CCSCC=C` [DAS, diallyl sulfide], the “inhibition of hepatotoxicity of N-nitrosodimethylamine” value in data set [4] is “inhibited the hepatotoxicity”. Also, the “Extent of liver damage” value in data set [5] (50 mg/kg oral, 1 hour after APAP 0.4 g/kg) is listed as 5-13%; in data set [6] (1 hour after APAP 0.2 g/kg), 16-39%; in data set [6] (setting [10]), 8-17%. For the same compound, the GPT was 70 ± 13 U/L in data set [5] (setting [9]), 158 ± 41 U/L in data set [6] (20 min after APAP 0.2 g/kg), 179 ± 2 U/L in data set [6] (1 hour after APAP 0.2 g/kg) and 143 ± 50 U/L in data set [6] (setting [10]). In addition, the LDH in data set [5] (setting [9]) was determined as 220 ± 82 U/L; in data set [6] (20 min after APAP 0.2 g/kg), 2374 ± 3533 U/L; in data set [6] (1 hour after APAP 0.2 g/kg), 15609 ± 7143 U/L; in data set [6] (setting [10]) it was 1899 ± 1724 U/L. The protection against hepatotoxicity result in data set [5] (50 mg/kg, 1 hr after APAP, rats) is “prevented the elevation of serum GPT and LDH levels, but did not completely prevent liver damage”. Besides, the minimal effective dose in data set [5] (Rattus norvegicus, rats, read-out: low dose at which protective effect was demonstrated) is 5 mg/kg; in data set [6] (Mus musculus, read-out: low dose at which protective effect was demonstrated), 5 mg/kg. For the same compound, the Survival in data set [6] (20 min after APAP 0.2 g/kg) is reported as 5/5; in data set [6] (1 hour after APAP 0.2 g/kg), 3/5; in data set [6] (setting [10]), 5/5. Also, the “protection against acetaminophen toxicity” value in data set [6] (25 mg/kg, immediately after acetaminophen, mice) is “although preventing the elevation of the LDH level, only partially prevented liver damage and had little or no effect on the elevated serum GPT level”. In addition, the “liver microsomal P-450 2E1-dependent (NDMA demethylase) activity” value in the data set on P-450 2E1 [1] is given as “decreased”. The “protection against 1,2-dimethylhydrazine-induced hepatotoxicity and carcinogenesis” value in data set [7] is recorded as “protect toxicity”. In addition, the “inhibition of hepatotoxicity of CCl4” value in data set [8] (pre-treatment of rats) was “inhibited the hepatotoxicity”. Also, the “protection against carbon tetrachloride hepatotoxicity” value in data set [8] (rat, in vivo) is recorded as “protect toxicity associated with carbon tetrachloride hepatotoxicity”. The “inhibition of P-450 2E1-catalyzed NDMA demethylase” value in the data set on P-450 2E1 [2] is “competitively”. Also, the “inhibition of p-nitrophenol hydroxylase” value in data set [3] is reported as “competitively”.
